The test system of one series is PfYRS knockdown line. The series can be described thus: Growth inhibition of aptamer-regulatable PfYRS knockdown line (luciferase, 72 h). Format: cell-based, Plasmodium falciparum. Particulars: for IC50: Plasmodium falciparum. The source says: 674 Generation and analysis of PfYRS knock-down transfectants
675 A conditional regulatable line for the cytosolic PfYRS (PF3D7_0807900) was generated by integrating the
676 gene regulatable system, TetR-DOZI-RNA aptamer module at the 3'-end of the target gene, in P. falciparum
677 parasites using CRISPR-Cas9 and homology-driven repair (55, 56). A line harbourbing an aptamer-
678 regulatable fluorescent protein (eYFP) integrated in the cg6 locus is used as the control (55). Transfection
679 into parasites was carried out by preloading RBCs with the donor vector as described previously (57).
680 Briefly, 50 μg of purified plasmid DNA was mixed with human RBCs and subjected to 8 square wave
681 electroporation pulses of 365 V for 1 ms each, separated by 0.1 s in a 0.2 cm cuvette. The plasmid DNA
682 preloaded cells were inoculated with NF54 expressing Cas9 and T7 RNA polymerase. […]
696 Stock solutions of ML901, DHA or borrelidin (Cayman Chemicals) were dispensed into 96-well U-bottom
697 BD Falcon™ plates and serially diluted in complete medium to yield final concentrations ranging from 20-
698 0.08 nM. Synchronous ring-stage YRScyt conditional knockdown line and the aptamer-regulatable control
699 line in varying aTc concentrations (high = 50 or 500 nM, low = 1 nM, and no aTc) were distributed into
700 the drug plate. Lowest drug treatment and a lethal dose of chloroquine (200 nM) served as reference
701 controls. Growth inhibition was analysed after 72 h using the Renilla-Glo(R) Luciferase Assay System (ref
702 no E2750 Promega) and the GloMax® Discover Multimode Microplate Reader (Promega), and IC50 values
703 were obtained from corrected dose-response curves using GraphPad Prism (version 8; GraphPad Software). […]
706 CRISPR/Cas9 was used to generate parasites encoding the S234C mutation in exon 2 of PfYRS, as shown
707 in Suppl Figure 6. Two guide RNAs (gRNA1: […] and gRNA2:
708 […]) were selected using Benchling (benchling.com), and cloned into the
709 pDC2-coCas9-gRNA plasmid essentially as described previously (58). A donor template of 645 bp,
710 encompassing the majority of the 708 bp exon 2, was synthesized (ThermoFisher) and cloned into the
711 AatII/EcoRI sites of both the pDC2-coCas9-gRNA1 and pDC2-coCas9-gRNA2 plasmids. In addition to
712 the TCC>TGC (S234C) mutation, additional silent shield mutations were introduced to prevent gRNA-
713 Cas9 complex binding, as shown in Suppl Figure 6. Ring-stage P. falciparum parasites (Dd2 strain) at 10%
714 parasitemia (150 µL of packed cells) were transfected with 50 µg of plasmid DNA using a BioRad Gene
715 Pulser II (310 V, 950 µF), and selected with 5 nM WR99210 (Jacobus Pharmaceuticals) for 8 days, after
716 which culture was continued without drug pressure until transfectants were obtained. Clones of the
717 PfYRSS234C mutant parasites were isolated by limiting dilution and verified by Sanger sequencing.
719 Protein translation assay
720 P. falciparum Cam 3.II_Rev (25) schizont- (43-48 h p.i.) infected RBCs were pre-incubated with inhibitor
Using a modification of a published procedure (14), the
722 cells were labelled with O-propargyl-puromycin (OPP; 4 µM) for 1 h, washed 3x (PBS +3% serum) and
723 then fixed for 10 minutes (4% formaldehyde/0.02% glutaraldehyde in PBS). The click reaction was
724 performed for 1 h in the presence of CuSO4 (0.1 mM), THPTA (0.5 mM) and sodium ascorbate (5 mM) to
725 bring about azide-alkyne cycloaddition to Alexa Fluor 488 azide (0.1 µM). Flow cytometry was performed
726 using the FITC and Cy™5.5 channels to detect the Alexa Fluor 488 and PI, respectively.
729 Cam 3.II_Rev (25) trophozoite-infected RBCs (25-30 h p.i.) were incubated with inhibitor for 3 h at 10%
730 hematocrit and 5% parasitemia. The RBC pellet was washed 3 x in PBS + cOmplete. Cells were centrifuged
731 at 380 x g for 5 min and the pelleted cells lysed by resuspension in PBS + 0.05% saponin for 5 min on ice.

Another series is described as follows: in vivo. The conditions noted are these: male, Sprague-Dawley, rat. As to the method:
625 of 50 mg/kg of compound on day 3 post-infection and measuring the effect on blood parasitemia by
626 microscopic analysis of Giemsa-stained blood smears (on days 3, 4, 5, 6 and 7 post-infection). Mice were
630 Human biological samples were sourced ethically; and their research use was in accord with the terms of
631 the informed consent. All animal studies were ethically reviewed and carried out in accredited facilities in
632 accordance with the relevant country’s directives and the institution’s Policy on the Care, Welfare and
633 Treatment of Animals.
635 Plasma exposure in infected mouse model
636 Compound was administered orally to two mice at 25 mg/kg on days 3, 4, 5, 6 after infection. On day 3,
637 blood samples (20 μL) were obtained at time points up to 24 hours after the first administration. Protein was
638 precipitated with acetonitrile and the remaining compound was assessed by LC-MS/MS in the selected reaction
641 Rat pharmacokinetics (PK) analyses
642 Sprague-Dawley rats (11 weeks old) were sourced from Hilltop Lab Animals, Inc (Scottdale, Pennsylvania,
643 USA). […]
648 0.5% formic acid in methanol and the supernatants were analysed by positive ion electrospray LC-MS for
649 the administered compound. Non-compartmental pharmacokinetic parameters were calculated from […]
660 IGM Genomics Center on the Illumina HiSeq 2500 in RapidRun mode to generate 100bp paired-end reads.

Read-outs that look alike come from different tables or passages of the source.

`Nc1ncnc2c1c(OC(F)F)nn2[C@@H]1O[C@H](COS(N)(=O)=O)[C@@H](O)[C@H]1O` [ML901]: the IC50 in the series with PfYRS knockdown line (as stated in main text, aTc condition not given, read-out: IC50 against the knockdown parasites) stood at 400 pM; in the series on PfYRS knockdown line (high aTc (50 nM), read-out: IC50 against PfYRS knockdown line), 3900 ± 900 pM; in the series on PfYRS knockdown line (low aTc (1 nm), read-out: IC50 against PfYRS knockdown line) it was 500 ± 100 pM; in the series with PfYRS knockdown line (no aTc, read-out: IC50 against PfYRS knockdown line) it was 300 ± 100 pM. Besides, the “Fold change in IC50 (high aTc/ no aTc), PfYRS knockdown line” value with PfYRS knockdown line (high aTc 50 nM) worked out at 13. The same compound displayed a Vd in the series “in vivo” (iv, 1 mg/kg, Vss) of 4.89 L/kg. Besides, the concentration in “in vivo” (po, 10 mg/kg, p.o. Cmax) peaked (Cmax) at 130 nM.

For orientation: IC50 means the midpoint of a concentration-inhibition curve. A word on the Vd: it is the apparent volume that relates the amount in the body to the concentration in plasma or blood. Read a low Vd as confinement near the circulation. A word on the Cmax: it is the highest concentration seen after dosing.

These data come from article PMC7613620, “Reaction hijacking of tyrosine tRNA synthetase as a whole-of-life-cycle antimalarial strategy” (Science (New York, N.Y.), 2022).
